Patent US5599548A, “Skin care compositions containing fatty acid amides and retinol or retinyl ester” (priority 1995, dated 1997)
Entries after “also recorded” stand apart in the source; their conditions may differ. Like-named read-outs stand apart in the source and are kept apart here.

Assays:
[1] = system: TGase I (keratinocyte transglutaminase level); assay: Transglutaminase (TGase I) ELISA assay (keratinocyte differentiation); format: cell-based, human
Procedure, shortened: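 Neonatal foreskin keratinocytes plated at 3,000 cells/well, treated with compounds after 4 days for 72 h, then freeze-fractured. TGase I measured by ELISA (mouse anti-human TGase primary, peroxidase anti-mouse secondary, o-phenylene diamine substrate, A492). Secondary-only background was subtracted; values are means ±s.d. of replicates.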

Human keratinocytes = assay: 3H-Thymidine incorporation (keratinocyte proliferation); format: cell-based; conditions: for activity at 0.001 µM / activity at 0.01 µM / activity at 1 µM / activity at 0.1 µM: Homo sapiens, Keratinocyte, 24 h; for activity at 1 µM: 10^-6 M; for activity at 0.1 µM: 10^-7 M
Procedure, shortened: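 Neonatal foreskin keratinocytes (second passage, serum-free medium) were plated at 40,000 cells/well and grown to 60–70% confluence. Compounds were added in triplicate 24 h after a medium change, with 1 μCi 3H-thymidine 4 h later, followed by a further 24 h incubation. TCA-precipitated label was counted by liquid scintillation and expressed as DPM/μg protein.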

[2] = Table 7A, n = 9, read-out: mean Thymidine incorp/μg protein ± s.d
[3] = Table 7A, n = 9, read-out: thymidine incorporation, % control

CCCCC/C=C\C/C=C\CCCCCCCC(=O)N(CCO)CCO [linoleoyl-DEA, Linoleoyl-Diethanolamide]
activity at 1 µM ([1]; Homo sapiens, Keratinocyte, 72 h, Table 2B, RA, ROH 2.5 × 10^-7 M, linoleoyl-DEA 10^-6 M, alone or combined, 72 h, n = 9, read-out: TGase (TG1) level, % control): 59%
activity at 1 µM ([1]; Homo sapiens, Keratinocyte, Table 3B, RA, RP 2.5 × 10^-7 M, linoleoyl-DEA 10^-6 M, alone or combined, n = 3, read-out: TGase (TG1) level, % control): 85%
activity at 1 µM ([1]; Homo sapiens, Keratinocyte, Table 8A, 10^-6 M, n = 3, read-out: TGase, % control): 87%
activity at 0.1 µM ([1]; Homo sapiens, Keratinocyte, Table 8A, 10^-7 M, n = 3, read-out: TGase, % control): 80%
activity at 0.01 µM ([1]; Homo sapiens, Keratinocyte, Table 8A, 10^-8 M, n = 3, read-out: TGase, % control): 86%
activity at 0.001 µM ([1]; Homo sapiens, Keratinocyte, Table 8A, 10^-9 M, n = 3, read-out: TGase, % control): 85%
activity at 1 µM ([1]; Homo sapiens, Keratinocyte, Table 8B, 10^-6 M, n = 3, read-out: TGase, % control): 37%
activity at 0.0001 µM ([1]; Homo sapiens, Keratinocyte, Table 8B, 10^-10 M, n = 3, read-out: TGase, % control): 66%
mean TGase ± s.d ([1]; Table 2B, RA, ROH 2.5 × 10^-7 M, linoleoyl-DEA 10^-6 M, alone or combined, 72 h, normalized to ethanol control, n = 9): 0.594 ± 0.773
mean TGase ± s.d ([1]; Table 3B, RA, RP 2.5 × 10^-7 M, linoleoyl-DEA 10^-6 M, alone or combined, n = 3): 0.186 ± 0.058
mean TGase ± s.d ([1]; Table 8A, 10^-6 M, n = 3): 0.186 ± 0.058
mean TGase ± s.d ([1]; Table 8A, 10^-7 M, n = 3): 0.175 ± 0.059
mean TGase ± s.d ([1]; Table 8A, 10^-8 M, n = 3): 0.188 ± 0.046
mean TGase ± s.d ([1]; Table 8A, 10^-9 M, n = 3): 0.185 ± 0.031
mean TGase ± s.d ([1]; Table 8B, 10^-6 M, n = 3): 0.037 ± 0.008
mean TGase ± s.d ([1]; Table 8B, 10^-10 M, n = 3): 0.080 ± 0.030
activity at 0.001 µM (Human keratinocytes; Table 2A, RA, ROH 2.5 × 10^-8 M, linoleoyl-DEA 10^-9 M, alone or combined, n = 9, read-out: thymidine incorporation, % control): 105%
activity at 0.001 µM (Human keratinocytes; Table 2A, RA, ROH 2.5 × 10^-8 M, linoleoyl-DEA 10^-9 M, alone or combined, normalized to ethanol control, n = 9, read-out: mean Thymidine incorp./μg protein ± s.d): 105 ± 15.8%
activity at 0.01 µM (Human keratinocytes; Table 3A, RA 2.5 × 10^-9 M, RP 2.5 × 10^-7 M, linoleoyl-DEA 10^-8 M, alone or combined, n = 3, read-out: thymidine incorporation, % control): 99%
activity at 1 µM (Human keratinocytes; [2]): 60.7 ± 8%
activity at 1 µM (Human keratinocytes; [3]): 61%
activity at 0.1 µM (Human keratinocytes; [2]): 101 ± 7.5%
activity at 0.1 µM (Human keratinocytes; [3]): 101%
activity at 0.01 µM (Human keratinocytes; Table 7A, 10^-8 M, n = 9, read-out: mean Thymidine incorp/μg protein ± s.d): 114 ± 20.6%
activity at 0.01 µM (Human keratinocytes; Table 7A, 10^-8 M, n = 9, read-out: thymidine incorporation, % control): 114%
activity at 0.001 µM (Human keratinocytes; Table 7A, 10^-9 M, n = 9, read-out: mean Thymidine incorp/μg protein ± s.d): 105 ± 15.8%
activity at 0.001 µM (Human keratinocytes; Table 7A, 10^-9 M, n = 9, read-out: thymidine incorporation, % control): 105%
mean Thymidine incorp./μg protein ± s.d (Human keratinocytes; Table 3A, RA 2.5 × 10^-9 M, RP 2.5 × 10^-7 M, linoleoyl-DEA 10^-8 M, alone or combined, n = 3): 1692 ± 48 DPM/μg protein
effect on keratinocyte proliferation, in words (Human keratinocytes; concentrations as in the respective Example): minor, non-significant stimulatory effect on keratinocyte proliferation; also recorded: no effect on keratinocyte proliferation
